ChEMBL document CHEMBL1148809, “Biological evaluation, structure-activity relationships, and three-dimensional quantitative structure-activity relationship studies of dihydro-beta-agarofuran sesquiterpenes as modulators of P-glycoprotein-dependent multidrug resistance” (J Med Chem, 2007)

Assays:
[1] = biological target: ATP-dependent translocase ABCB1 (Homo sapiens, UniProt P08183); test: (§1) Inhibition of human Pgp-mediated DNR transport in NIH3T3 cells by microplate assay; assay type: cell-based, Mus musculus
Sequence of ATP-dependent translocase ABCB1 (P08183 whole entry): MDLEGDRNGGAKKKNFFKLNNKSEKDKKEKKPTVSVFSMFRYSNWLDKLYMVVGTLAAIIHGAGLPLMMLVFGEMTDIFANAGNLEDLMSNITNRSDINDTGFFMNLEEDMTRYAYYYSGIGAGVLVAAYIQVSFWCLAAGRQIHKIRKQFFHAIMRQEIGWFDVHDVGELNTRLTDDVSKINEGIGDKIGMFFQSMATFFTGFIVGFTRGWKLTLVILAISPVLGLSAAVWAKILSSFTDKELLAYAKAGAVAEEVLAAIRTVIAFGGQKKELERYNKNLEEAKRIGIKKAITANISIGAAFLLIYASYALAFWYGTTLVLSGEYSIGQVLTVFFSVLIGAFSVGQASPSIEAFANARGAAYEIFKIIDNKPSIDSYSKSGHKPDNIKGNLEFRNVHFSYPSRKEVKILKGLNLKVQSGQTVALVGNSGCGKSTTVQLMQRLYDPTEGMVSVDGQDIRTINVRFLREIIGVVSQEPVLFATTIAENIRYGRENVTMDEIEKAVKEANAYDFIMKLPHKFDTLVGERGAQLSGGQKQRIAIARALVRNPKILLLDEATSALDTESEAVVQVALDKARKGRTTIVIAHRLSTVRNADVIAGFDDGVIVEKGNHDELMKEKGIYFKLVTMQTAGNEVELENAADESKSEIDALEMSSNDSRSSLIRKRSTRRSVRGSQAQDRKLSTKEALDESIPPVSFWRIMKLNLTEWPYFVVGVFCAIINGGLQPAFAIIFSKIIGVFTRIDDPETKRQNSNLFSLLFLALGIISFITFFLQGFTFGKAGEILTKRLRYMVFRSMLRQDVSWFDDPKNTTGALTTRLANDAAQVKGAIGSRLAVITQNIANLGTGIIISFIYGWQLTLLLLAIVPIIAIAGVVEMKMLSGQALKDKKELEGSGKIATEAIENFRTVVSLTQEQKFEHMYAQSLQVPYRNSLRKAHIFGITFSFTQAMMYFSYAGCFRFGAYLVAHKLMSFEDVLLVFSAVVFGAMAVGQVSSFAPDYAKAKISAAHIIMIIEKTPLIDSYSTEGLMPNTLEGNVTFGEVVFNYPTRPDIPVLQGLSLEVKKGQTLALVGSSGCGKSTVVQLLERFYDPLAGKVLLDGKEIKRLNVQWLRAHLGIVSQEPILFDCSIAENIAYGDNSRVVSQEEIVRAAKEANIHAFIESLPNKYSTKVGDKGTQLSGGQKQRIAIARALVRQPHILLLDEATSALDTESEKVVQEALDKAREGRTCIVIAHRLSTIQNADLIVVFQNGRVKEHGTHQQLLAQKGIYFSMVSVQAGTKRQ

[2] = Partition coefficient, log P of the compound; assay type: physicochemical; details: octanol/water
P-gp (ABCB1) = P-gp (ABCB1) (Homo sapiens, UniProt P08183); test: as §1; assay type: cell-based, Mus musculus; details: mouse, NIH3T3 cells expressing human P-gp, probe DNR; read-out: Imax
Sequence of P-gp (ABCB1) (P08183 whole entry): as above

| Compound | Ki ([1]; read-out: Ki) [µM] | logP ([2]; read-out: LogP) | Emax (P-gp (ABCB1)) [%] | Ki ([1]; read-out: Log Ki (converted)) [µM] | logP [2] |
| --- | --- | --- | --- | --- | --- |
| CC(=O)O[C@H]1C[C@@](C)(O)[C@]23OC(C)(C)[C@H](C[C@H](OC(=O)c4ccco4)[C@]2(C)[C@H]1OC(C)=O)[C@H]3OC(C)=O | 100 | 3.8 |  |  |  |
| CC(=O)O[C@H]1[C@H](OC(=O)c2cccnc2)[C@@]2(C)[C@@H](OC(=O)c3ccccc3)[C@@H](OC(=O)c3ccccc3)[C@@H]3C[C@]2(OC3(C)C)[C@](C)(O)[C@H]1OC(C)=O | 1.45 | 7.5 | 100 |  |  |
| CC(=O)OC[C@]12[C@H](OC(=O)c3ccccc3)C(=O)[C@@H]3[C@@H](OC(C)=O)[C@]1(OC3(C)C)[C@H](C)C[C@H](OC(C)=O)[C@@H]2OC(C)=O | 2.54 | 6.1 | 62.3 |  |  |
| CC(=O)OC[C@]12[C@H](OC(=O)c3ccccc3)C(=O)[C@@H]3[C@@H](OC(C)=O)[C@]1(OC3(C)C)[C@H](C)C[C@H](OC(C)=O)[C@@H]2O | 18.4 | 5 | 91.7 |  |  |
| CC(=O)OC[C@]12[C@H](OC(C)=O)C(=O)[C@@H]3[C@@H](OC(C)=O)[C@]1(OC3(C)C)[C@H](C)C[C@H](OC(C)=O)[C@@H]2OC(=O)c1ccccc1 | 5.74 | 6.1 | 96.4 |  |  |
| CC(=O)O[C@@H]1[C@H]2[C@@H](OC(=O)c3ccccc3)[C@@H](OC(=O)c3ccccc3)[C@]3(CO)[C@@H](OC(=O)c4ccccc4)[C@@H](OC(=O)c4ccccc4)C[C@@H](C)[C@@]13OC2(C)C | 1.3 |  | 39.5 | 1.66 | 11.5 |
| CC(=O)O[C@H]1[C@@H](O)[C@H](OC(=O)c2ccccc2)[C@@]2(C)[C@@H](OC(=O)/C=C/c3ccccc3)C[C@@H]3C[C@]2(OC3(C)C)[C@@H]1C | 4.25 | 6.2 | 63.7 |  |  |
| CC(=O)O[C@@H]1C[C@@](C)(O)[C@@]23C[C@@H](C[C@H](OC(=O)/C=C/c4ccccc4)[C@]2(C)[C@H]1OC(=O)c1ccccc1)C(C)(C)O3 | 7.61 | 6.5 | 100 |  |  |
| CC(=O)OC[C@]12[C@H](OC(=O)c3ccccc3)C(=O)[C@@H]3[C@@H](OC(C)=O)[C@]1(OC3(C)C)[C@](C)(O)C[C@H](OC(=O)c1ccccc1)[C@@H]2OC(=O)c1ccccc1 | 1.03 |  | 80 |  | 10 |
| CC(=O)O[C@@H]1C[C@@](C)(O)[C@@]23C[C@@H](C[C@H](OC(=O)c4ccccc4)[C@]2(C)[C@H]1OC(=O)c1ccccc1)C(C)(C)O3 | 7.59 | 6.6 | 89.8 |  |  |
| CC(=O)OC[C@]12[C@H](OC(C)=O)C(=O)[C@@H]3[C@@H](OC(C)=O)[C@]1(OC3(C)C)[C@H](C)C[C@H](OC(C)=O)[C@@H]2OC(C)=O | 9.83 | 4 | 100 |  |  |
| C[C@@H]1[C@@H](O)[C@@H](O)[C@H](OC(=O)c2ccccc2)[C@@]2(C)[C@@H](OC(=O)/C=C/c3ccccc3)C[C@@H]3C[C@]12OC3(C)C | 6.94 | 6 | 76.6 |  |  |
| CC(=O)O[C@H]1[C@@H]2C[C@@]3(OC2(C)C)[C@](C)([C@H]1OC(=O)c1ccccc1)[C@@H](OC(=O)c1cccnc1)[C@H](OC(C)=O)[C@H](OC(=O)c1ccccc1)[C@@]3(C)O | 1.36 | 7.8 | 100 |  |  |
| CC(=O)O[C@H]1[C@H](OC(=O)c2ccccc2)[C@@]2(C)[C@@H](OC(=O)c3ccccc3)[C@@H](OC(=O)c3ccccc3)[C@@H]3C[C@]2(OC3(C)C)[C@](C)(O)[C@H]1OC(C)=O | 0.73 | 8.8 | 98.7 |  |  |
| CC(=O)OC[C@]12[C@H](OC(=O)c3ccccc3)C(=O)[C@@H]3[C@@H](O)[C@]1(OC3(C)C)[C@](C)(O)C[C@H](OC(C)=O)[C@@H]2OC(=O)c1ccccc1 | 3.97 | 7.2 | 74.4 |  |  |
| CC(=O)O[C@@H]1[C@H](OC(C)=O)[C@@H](C)[C@@]23C[C@@H](C[C@H](OC(=O)/C=C/c4ccccc4)[C@]2(C)[C@H]1OC(=O)c1ccccc1)C(C)(C)O3 | 2.72 | 7.4 | 75.8 |  |  |
| CC(=O)O[C@H]1[C@H](OC(=O)/C=C/c2ccccc2)[C@@]2(C)[C@@H](OC(=O)c3ccccc3)C[C@@H]3C[C@]2(OC3(C)C)[C@](C)(O)[C@H]1OC(=O)c1cccnc1 | 2.07 | 7.6 | 95.2 |  |  |

| Compound | Ki ([1]; read-out: Ki) [µM] | logP ([2]; read-out: LogP) | Emax (P-gp (ABCB1)) [%] | Ki ([1]; read-out: Log Ki (converted)) [µM] | logP [2] |
| --- | --- | --- | --- | --- | --- |
| CC(=O)O[C@H]1[C@H](OC(=O)c2ccccc2)[C@@]2(C)[C@@H](OC(=O)/C=C/c3ccccc3)C[C@@H]3[C@@H](OC(C)=O)[C@]2(OC3(C)C)[C@](C)(O)[C@H]1OC(=O)c1cccnc1 | 25 | 8 | 100 |  |  |
| CC(=O)O[C@H]1[C@H](OC(=O)c2ccccc2)[C@@]2(C)[C@@H](OC(=O)c3ccccc3)C[C@@H]3[C@@H](OC(C)=O)[C@]2(OC3(C)C)[C@](C)(O)[C@H]1OC(=O)c1cccnc1 | 3.75 | 8 | 98.8 |  |  |
| CC(=O)O[C@H]1[C@@H](OC(=O)c2ccco2)C[C@@](C)(O)[C@]23OC(C)(C)[C@H](C[C@H](OC(=O)c4ccco4)[C@]12C)[C@H]3OC(=O)c1ccco1 | 2.19 | 6.5 | 80.5 |  |  |
| CC(=O)OC[C@]12[C@H](OC(C)=O)[C@H](OC(C)=O)[C@@H]3[C@@H](OC(C)=O)[C@]1(O[C@@]3(C)COC(C)=O)[C@](C)(O)[C@@H](OC(C)=O)[C@H](OC(C)=O)[C@@H]2OC(C)=O | 6.97 | 3.6 | 31 |  |  |
| CC(=O)O[C@@H]1[C@H]2[C@H](O)[C@H](OC(=O)c3ccccc3)[C@]3(C)[C@@H](OC(=O)c4ccccc4)[C@@H](OC(=O)c4ccccc4)C[C@@](C)(O)[C@@]13OC2(C)C | 1.21 | 8.4 | 100 |  |  |
| CC(=O)O[C@H]1[C@@H]2[C@@H](OC(C)=O)[C@]3(OC2(C)C)[C@H](C)C[C@H](OC(=O)c2cccnc2)[C@H](OC(=O)c2ccccc2)[C@@]3(C)[C@H]1OC(=O)c1ccccc1 | 7.72 | 8.7 | 92.3 |  |  |
| CC(=O)O[C@H]1[C@@H]2[C@@H](OC(C)=O)[C@@]3(OC2(C)C)[C@](C)([C@H]1OC(=O)c1ccccc1)[C@@H](OC(=O)c1ccccc1)[C@@H](OC(=O)c1ccccc1)C[C@@]3(C)O | 11.3 |  | 80.7 |  | 9.4 |
| CC(=O)OC[C@]12[C@H](OC(=O)c3ccccc3)[C@H](OC(=O)c3ccccc3)[C@@H]3[C@@H](OC(C)=O)[C@]1(OC3(C)C)[C@H](C)C[C@H](OC(=O)c1ccccc1)[C@@H]2OC(C)=O | 33.8 |  | 100 |  | 10.3 |
| CC(=O)OC[C@]12[C@H](OC(=O)c3ccccc3)[C@H](OC(=O)c3ccccc3)[C@@H]3[C@@H](OC(C)=O)[C@]1(OC3(C)C)[C@H](C)C[C@H](OC(=O)c1ccccc1)[C@@H]2OC(=O)c1ccccc1 | 1.98 |  | 29.3 |  |  |
| CC(=O)OC[C@]12[C@H](OC(C)=O)C(=O)[C@@H]3[C@@H](OC(C)=O)[C@]1(OC3(C)C)[C@](C)(O)[C@@H](OC(C)=O)[C@H](OC(C)=O)[C@@H]2OC(=O)c1ccccc1 | 6.52 | 6 | 53.9 | 0.302 |  |
| CC(=O)O[C@@H]1[C@H](O)[C@@H](C)[C@@]23C[C@@H](C[C@H](OC(=O)/C=C/c4ccccc4)[C@]2(C)[C@H]1OC(=O)c1ccccc1)C(C)(C)O3 | 8.46 | 6.3 | 82.9 |  |  |
| CC(=O)OC[C@]12[C@H](OC(=O)c3ccccc3)C(=O)[C@@H]3[C@@H](OC(C)=O)[C@]1(OC3(C)C)[C@](C)(O)C[C@H](OC(C)=O)[C@@H]2OC(=O)c1ccccc1 | 3.01 | 7.7 | 81.1 |  |  |
| CC(=O)O[C@H]1[C@@H]2C[C@@]3(OC2(C)C)[C@](C)([C@H]1OC(=O)c1ccccc1)[C@@H](OC(=O)c1ccccc1)[C@H](OC(C)=O)[C@H](OC(C)=O)[C@@]3(C)O | 1.27 | 6.8 | 88.7 |  |  |
| CC(=O)OC[C@@]12[C@@H](OC(=O)c3ccccc3)CC[C@@](C)(O)[C@]13OC(C)(C)[C@H]([C@@H](OC(=O)c1ccccc1)[C@H]2OC(=O)c1ccccc1)[C@H]3OC(C)=O | 1.22 |  | 100 |  | 9.6 |
| CCCCCO[C@@H]1[C@@H]2[C@@H](OC(C)=O)[C@@]3(OC2(C)C)[C@@](COC(C)=O)([C@@H](OC(C)=O)CC[C@@]3(C)O)[C@@H]1OC(=O)c1ccccc1 | 1.83 | 7 | 87.7 |  |  |
| CC(=O)OC[C@]12[C@H](OC(=O)c3ccccc3)C(=O)[C@@H]3[C@@H](OC(C)=O)[C@]1(OC3(C)C)[C@H](C)C[C@H](OC(C)=O)[C@@H]2OC(=O)c1ccccc1 | 1.63 | 8.1 | 81.6 |  |  |
